Test results as given in paper PMC8292346, “Dysfunction of the key ferroptosis-surveilling systems hypersensitizes mice to tubular necrosis during acute kidney injury” (Nature Communications, 2021).
“And” between values parts separate entries of the source, which are not always exact repeats. Equal entries are not always repeated.

Experiments:
C57Bl/6 N mice = assay: Bilateral kidney ischemia-reperfusion injury, moderate model (30 min ischemia); type: in vivo, mouse
Excerpt: Otherwise, the two models are identical.

A2A(h) = A2A(h) (Homo sapiens, UniProt P29274); assay: Off-target radioligand binding screen; settings: read-out: A2A(h) (#): inhibition of radioligand binding
CB1(h) = CB1(h) (Homo sapiens, UniProt P21554); assay: Off-target radioligand binding screen; settings: read-out: CB1(h) (#): inhibition of radioligand binding
D1(h) = D1(h) (Homo sapiens, UniProt P21728); assay: Off-target radioligand binding screen; settings: read-out: D1(h) ($): inhibition of radioligand binding
ETA(h) = ETA(h) (Homo sapiens, UniProt P25101); assay: Off-target radioligand binding screen; settings: read-out: ETA(h) (#): inhibition of radioligand binding
M1(h) = M1(h) (Homo sapiens, UniProt P11229); assay: Off-target radioligand binding screen; settings: read-out: M1(h) ($): inhibition of radioligand binding
M2 (h) = M2 (h) (Homo sapiens, UniProt P08172); assay: Off-target radioligand binding screen; settings: read-out: M2 (h) ($): inhibition of radioligand binding
kappa (h) (KOP) = kappa (h) (KOP) (Homo sapiens, UniProt P41145); assay: Off-target radioligand binding screen; settings: read-out: kappa (h) (KOP) (#): inhibition of radioligand binding
5-HT2B(h) = 5-HT2B(h) (Homo sapiens, UniProt P41595); assay: Off-target radioligand binding screen; settings: read-out: 5-HT2B(h) (#): inhibition of radioligand binding
5-HT3(h) = 5-HT3(h) (Homo sapiens, UniProt P46098); assay: Off-target radioligand binding screen; settings: read-out: 5-HT3(h) ($): inhibition of radioligand binding
GR (h) = GR (h) (Homo sapiens, UniProt P04150); assay: Off-target radioligand binding screen; settings: read-out: GR (h) (#): inhibition of radioligand binding, Nec-1f 10 µM
KV channel = assay: Off-target radioligand binding screen; settings: Nec-1f 10 µM
[1] = biological target: indoleamine 2,3-dioxygenase (IDO) (Homo sapiens, UniProt P14902); assay: IDO assay (formation of N-formyl-kynurenine from L-tryptophan); settings: read-out: IDO (h): inhibition
[2] = Nec-1f - sham, individual animals
[3] = Nec-1f, 48 h after onset of reperfusion, individual animals
[4] = Nec-1f, 72 h after onset of reperfusion, individual animals
[5] = kidney IRI, 1.65 mg/kg i.p. 15 min before
[6] = mice, bilateral kidney IRI, Nec-1f 1.65 mg/kg i.p. 15 min before, individual animals
[7] = mice, kidney IRI, Nec-1f, individual animals

M1(h), sequence (P11229 whole entry): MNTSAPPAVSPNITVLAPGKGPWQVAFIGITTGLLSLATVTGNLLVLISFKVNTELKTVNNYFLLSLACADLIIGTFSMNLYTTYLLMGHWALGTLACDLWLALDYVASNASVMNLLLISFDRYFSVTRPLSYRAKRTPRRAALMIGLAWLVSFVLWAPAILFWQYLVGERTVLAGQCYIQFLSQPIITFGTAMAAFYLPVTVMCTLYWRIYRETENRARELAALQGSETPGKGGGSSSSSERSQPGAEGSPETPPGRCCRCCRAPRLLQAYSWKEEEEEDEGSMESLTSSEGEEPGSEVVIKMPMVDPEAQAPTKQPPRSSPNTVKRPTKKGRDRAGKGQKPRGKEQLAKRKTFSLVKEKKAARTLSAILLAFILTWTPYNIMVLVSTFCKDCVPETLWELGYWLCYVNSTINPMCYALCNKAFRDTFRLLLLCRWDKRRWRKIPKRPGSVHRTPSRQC
M2 (h), sequence (P08172 whole entry): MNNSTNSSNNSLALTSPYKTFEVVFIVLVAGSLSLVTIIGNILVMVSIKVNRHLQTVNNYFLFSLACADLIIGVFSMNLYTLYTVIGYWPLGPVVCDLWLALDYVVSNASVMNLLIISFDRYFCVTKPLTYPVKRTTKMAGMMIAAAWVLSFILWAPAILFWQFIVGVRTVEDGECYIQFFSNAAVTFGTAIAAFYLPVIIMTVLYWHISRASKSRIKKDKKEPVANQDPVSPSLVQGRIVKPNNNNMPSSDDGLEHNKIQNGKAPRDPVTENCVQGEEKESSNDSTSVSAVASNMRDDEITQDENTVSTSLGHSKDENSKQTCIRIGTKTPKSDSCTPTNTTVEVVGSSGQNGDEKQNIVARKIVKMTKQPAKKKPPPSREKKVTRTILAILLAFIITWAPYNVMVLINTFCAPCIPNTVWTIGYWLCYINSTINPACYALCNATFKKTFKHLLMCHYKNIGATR
ETA(h), sequence (P25101 21-427): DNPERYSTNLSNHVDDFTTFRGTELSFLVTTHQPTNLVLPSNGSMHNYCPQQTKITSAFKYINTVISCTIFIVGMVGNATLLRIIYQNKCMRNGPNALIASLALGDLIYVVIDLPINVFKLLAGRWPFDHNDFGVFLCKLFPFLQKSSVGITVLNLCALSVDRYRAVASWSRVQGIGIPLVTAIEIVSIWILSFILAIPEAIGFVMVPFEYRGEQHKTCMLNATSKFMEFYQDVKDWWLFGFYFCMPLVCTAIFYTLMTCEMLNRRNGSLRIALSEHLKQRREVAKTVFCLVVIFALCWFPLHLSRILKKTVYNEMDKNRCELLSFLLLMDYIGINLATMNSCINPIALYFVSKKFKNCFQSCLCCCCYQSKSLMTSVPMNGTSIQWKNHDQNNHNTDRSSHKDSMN
A2A(h), sequence (P29274 whole entry): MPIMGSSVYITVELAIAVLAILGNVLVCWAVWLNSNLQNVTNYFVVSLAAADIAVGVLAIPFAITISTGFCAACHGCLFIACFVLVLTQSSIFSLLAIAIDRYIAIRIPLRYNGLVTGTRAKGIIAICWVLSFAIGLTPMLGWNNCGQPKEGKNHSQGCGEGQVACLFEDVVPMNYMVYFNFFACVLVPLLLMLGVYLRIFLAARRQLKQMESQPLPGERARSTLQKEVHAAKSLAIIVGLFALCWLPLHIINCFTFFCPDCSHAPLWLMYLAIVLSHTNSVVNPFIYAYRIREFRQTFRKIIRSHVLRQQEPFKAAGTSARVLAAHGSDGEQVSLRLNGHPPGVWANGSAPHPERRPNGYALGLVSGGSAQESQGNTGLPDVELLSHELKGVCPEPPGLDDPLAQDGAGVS
D1(h), sequence (P21728 whole entry): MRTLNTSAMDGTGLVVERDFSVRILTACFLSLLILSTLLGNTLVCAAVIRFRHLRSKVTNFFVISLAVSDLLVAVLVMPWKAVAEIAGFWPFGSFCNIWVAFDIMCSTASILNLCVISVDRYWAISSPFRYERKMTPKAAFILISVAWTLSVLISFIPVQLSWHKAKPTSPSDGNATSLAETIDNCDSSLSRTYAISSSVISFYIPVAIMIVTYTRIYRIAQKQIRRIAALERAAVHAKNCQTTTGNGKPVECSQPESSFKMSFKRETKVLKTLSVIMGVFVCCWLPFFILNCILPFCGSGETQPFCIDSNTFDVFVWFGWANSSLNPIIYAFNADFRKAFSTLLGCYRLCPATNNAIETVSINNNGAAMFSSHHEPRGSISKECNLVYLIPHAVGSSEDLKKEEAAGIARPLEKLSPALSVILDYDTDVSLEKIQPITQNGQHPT
GR (h), sequence (P04150 whole entry): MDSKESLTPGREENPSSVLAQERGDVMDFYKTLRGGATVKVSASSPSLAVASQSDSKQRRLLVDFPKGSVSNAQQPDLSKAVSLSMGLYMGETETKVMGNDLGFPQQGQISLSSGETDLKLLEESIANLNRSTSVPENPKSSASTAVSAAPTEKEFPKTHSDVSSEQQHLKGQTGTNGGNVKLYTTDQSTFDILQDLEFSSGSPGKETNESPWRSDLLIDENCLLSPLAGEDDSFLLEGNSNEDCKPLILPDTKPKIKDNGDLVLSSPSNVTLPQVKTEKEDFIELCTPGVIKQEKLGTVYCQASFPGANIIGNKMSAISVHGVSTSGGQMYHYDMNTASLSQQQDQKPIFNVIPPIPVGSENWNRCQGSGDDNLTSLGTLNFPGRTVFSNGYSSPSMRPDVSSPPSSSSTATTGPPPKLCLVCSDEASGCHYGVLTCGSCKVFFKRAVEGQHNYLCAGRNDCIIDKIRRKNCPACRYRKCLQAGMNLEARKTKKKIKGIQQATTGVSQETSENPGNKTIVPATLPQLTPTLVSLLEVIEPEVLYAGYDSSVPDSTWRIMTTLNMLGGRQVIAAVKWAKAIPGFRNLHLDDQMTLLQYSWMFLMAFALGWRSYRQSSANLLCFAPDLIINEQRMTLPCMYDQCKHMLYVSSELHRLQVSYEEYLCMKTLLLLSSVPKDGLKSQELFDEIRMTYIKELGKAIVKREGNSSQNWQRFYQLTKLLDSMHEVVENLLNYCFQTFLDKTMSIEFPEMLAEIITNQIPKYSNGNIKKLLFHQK
5-HT3(h), sequence (P46098 24-478): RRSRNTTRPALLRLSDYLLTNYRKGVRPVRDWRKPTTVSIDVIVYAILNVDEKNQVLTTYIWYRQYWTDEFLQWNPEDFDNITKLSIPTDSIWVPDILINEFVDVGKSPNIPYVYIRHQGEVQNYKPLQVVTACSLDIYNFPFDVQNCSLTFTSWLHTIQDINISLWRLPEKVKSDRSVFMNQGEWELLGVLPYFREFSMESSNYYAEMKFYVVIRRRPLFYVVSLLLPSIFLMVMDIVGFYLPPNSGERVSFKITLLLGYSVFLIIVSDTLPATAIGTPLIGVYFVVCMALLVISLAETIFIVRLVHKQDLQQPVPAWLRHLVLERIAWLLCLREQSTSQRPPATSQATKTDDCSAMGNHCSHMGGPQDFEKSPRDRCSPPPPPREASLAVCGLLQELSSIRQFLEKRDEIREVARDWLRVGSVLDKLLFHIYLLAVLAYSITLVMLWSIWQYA
CB1(h), sequence (P21554 whole entry): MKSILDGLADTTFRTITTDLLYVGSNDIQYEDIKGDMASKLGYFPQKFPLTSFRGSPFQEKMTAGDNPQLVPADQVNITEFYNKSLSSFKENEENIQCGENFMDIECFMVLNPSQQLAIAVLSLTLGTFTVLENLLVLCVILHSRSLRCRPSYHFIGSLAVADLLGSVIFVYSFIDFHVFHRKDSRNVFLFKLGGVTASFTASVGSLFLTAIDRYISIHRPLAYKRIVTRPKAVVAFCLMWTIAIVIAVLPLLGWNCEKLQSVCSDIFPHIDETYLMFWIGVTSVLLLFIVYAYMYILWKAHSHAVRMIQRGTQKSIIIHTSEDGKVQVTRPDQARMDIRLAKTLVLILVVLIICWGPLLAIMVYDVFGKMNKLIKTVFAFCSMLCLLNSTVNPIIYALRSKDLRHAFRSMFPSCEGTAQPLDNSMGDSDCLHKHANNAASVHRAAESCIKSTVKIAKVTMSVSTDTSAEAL
indoleamine 2,3-dioxygenase (IDO), sequence (P14902 whole entry): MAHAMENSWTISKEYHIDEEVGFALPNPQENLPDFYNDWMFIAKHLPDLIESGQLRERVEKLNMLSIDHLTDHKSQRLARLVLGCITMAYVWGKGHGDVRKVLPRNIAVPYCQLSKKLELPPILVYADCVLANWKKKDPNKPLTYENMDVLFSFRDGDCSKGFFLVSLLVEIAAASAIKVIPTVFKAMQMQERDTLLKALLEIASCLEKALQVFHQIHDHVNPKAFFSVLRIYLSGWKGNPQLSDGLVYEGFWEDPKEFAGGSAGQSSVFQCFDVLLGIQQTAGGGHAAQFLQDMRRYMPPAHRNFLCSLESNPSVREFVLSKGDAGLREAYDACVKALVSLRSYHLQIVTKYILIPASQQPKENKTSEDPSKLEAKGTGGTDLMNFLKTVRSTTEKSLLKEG
5-HT2B(h), sequence (P41595 whole entry): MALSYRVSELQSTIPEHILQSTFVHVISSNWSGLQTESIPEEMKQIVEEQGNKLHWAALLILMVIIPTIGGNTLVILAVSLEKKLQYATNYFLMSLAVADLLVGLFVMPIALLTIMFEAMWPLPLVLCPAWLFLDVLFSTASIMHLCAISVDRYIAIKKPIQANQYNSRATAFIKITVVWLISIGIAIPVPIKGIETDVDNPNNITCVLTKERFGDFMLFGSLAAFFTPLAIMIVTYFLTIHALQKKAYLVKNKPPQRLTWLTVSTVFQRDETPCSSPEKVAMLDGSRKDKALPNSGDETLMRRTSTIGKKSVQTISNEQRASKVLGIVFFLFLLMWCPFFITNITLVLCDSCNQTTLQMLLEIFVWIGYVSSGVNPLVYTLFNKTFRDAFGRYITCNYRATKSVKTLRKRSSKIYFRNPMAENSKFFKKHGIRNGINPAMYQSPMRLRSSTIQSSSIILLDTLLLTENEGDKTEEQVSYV

**Q.** How did the Serum creatinine (C57Bl/6 N mice; [2]) turn out when `CN1C(=O)C(Cc2c[nH]c3c(Cl)cccc23)NC1=S` (stereo not shown) [Nec-1f] was run?
**A.** 23 µmol/L and 17 µmol/L

**Q.** What about the Serum urea (C57Bl/6 N mice; [2]) of the same compound?
**A.** 5.5 mmol/L and 5.6 mmol/L

**Q.** What about the Serum creatinine (C57Bl/6 N mice; [3]) of the same compound?
**A.** 28 µmol/L and 95 µmol/L and 52 µmol/L and 60 µmol/L and 40 µmol/L and 74 µmol/L and 33 µmol/L and 35 µmol/L and 39 µmol/L

**Q.** And the Serum urea (C57Bl/6 N mice; [3])?
**A.** 19.1 mmol/L and 76 mmol/L and 75 mmol/L and 43.6 mmol/L and 50.1 mmol/L and 32.1 mmol/L and 57 mmol/L and 22.5 mmol/L and 16.7 mmol/L and 34.1 mmol/L and 24.8 mmol/L

**Q.** What about the Serum creatinine (C57Bl/6 N mice; [4]) of the same compound?
**A.** 79 µmol/L and 31 µmol/L and 63 µmol/L and 46 µmol/L and 53 µmol/L and 44 µmol/L

**Q.** What about the Serum urea (C57Bl/6 N mice; [4]) of the same compound?
**A.** 30.9 mmol/L and 8.8 mmol/L and 20.2 mmol/L and 18.9 mmol/L and 37.3 mmol/L and 16.4 mmol/L

**Q.** What about the “4HNE staining of renal tissue” value (C57Bl/6 N mice; [5]) of the same compound?
**A.** attenuated

**Q.** And the “Infiltration of macrophages (F4/80) in the renal medulla” value (C57Bl/6 N mice; [5])?
**A.** significantly less infiltration

**Q.** What about the “Serum creatinine vs vehicle” value (C57Bl/6 N mice; [5]) of the same compound?
**A.** lower than in the vehicle-treated mice

**Q.** What about the “Serum urea vs vehicle” value (C57Bl/6 N mice; [5]) of the same compound?
**A.** lower than in the vehicle-treated mice

**Q.** And the “Tubular damage vs vehicle” value (C57Bl/6 N mice; [5])?
**A.** lower than in the vehicle-treated mice

**Q.** And the “4HNE score, arbitrary [0-3] (sheet FigS2d)” value (C57Bl/6 N mice; kidney IRI, column headed Nec-1f)?
**A.** 1.6 and 1.4

**Q.** And the “4HNE staining score, arbitrary [0-3]” value (C57Bl/6 N mice; [6])?
**A.** 0.6 and 1.6 and 1.8 and 0.8 and 1.2

**Q.** What about the “Tubular damage score, arbitrary [0-10]” value (C57Bl/6 N mice; [6]) of the same compound?
**A.** 5 and 7 and 4

**Q.** What about the “F4/80 positivity, quantitative (Fig6i)” value (C57Bl/6 N mice; [7]) of the same compound?
**A.** 8.8 cells/field and 7.8 cells/field and 20.3 cells/field and 16.2 cells/field and 20.8 cells/field

**Q.** What about the “F4/80 positivity, quantitative (Fig6h)” value (C57Bl/6 N mice; [7]) of the same compound?
**A.** 3.45 cells/field and 6.077 cells/field and 9.25 cells/field and 7.125 cells/field and 9.0625 cells/field

**Q.** What about the inhibition at 10 µM (A2A(h)) of the same compound?
**A.** -0.3%

**Q.** And the inhibition at 10 µM (CB1(h))?
**A.** -24.7%

**Q.** And the inhibition at 10 µM (D1(h))?
**A.** 2.3%

**Q.** What about the inhibition at 10 µM (ETA(h)) of the same compound?
**A.** 0.9%

**Q.** And the inhibition at 10 µM (M1(h))?
**A.** -7.3%

**Q.** And the inhibition at 10 µM (M2 (h))?
**A.** -1.7%

**Q.** And the inhibition at 10 µM (kappa (h) (KOP))?
**A.** 16%

**Q.** And the inhibition at 10 µM (5-HT2B(h))?
**A.** 16.7%

**Q.** What about the inhibition at 10 µM (5-HT3(h)) of the same compound?
**A.** 10.4%

**Q.** And the inhibition at 10 µM (GR (h))?
**A.** ≥ 50%

**Q.** And the “KV channel ($): inhibition of radioligand binding” value (KV channel)?
**A.** 1.7%

**Q.** What about the inhibition at 10 µM [1] of the same compound?
**A.** 2%
